Consider twelve molecules from patent US7410975B2, “Small molecule toll-like receptor (TLR) antagonists” (Coley Pharmaceutical Group, Inc., priority 2003, dated 2008).

The structures appear in SMILES notation. Like-named read-outs stand apart in the source and are kept apart here.

One data set concerns the target T1, hTLR9 (Homo sapiens, UniProt Q9NR96).
T1 construct: expressed in transfected cells
T1 sequence (Q9NR96 26-1032): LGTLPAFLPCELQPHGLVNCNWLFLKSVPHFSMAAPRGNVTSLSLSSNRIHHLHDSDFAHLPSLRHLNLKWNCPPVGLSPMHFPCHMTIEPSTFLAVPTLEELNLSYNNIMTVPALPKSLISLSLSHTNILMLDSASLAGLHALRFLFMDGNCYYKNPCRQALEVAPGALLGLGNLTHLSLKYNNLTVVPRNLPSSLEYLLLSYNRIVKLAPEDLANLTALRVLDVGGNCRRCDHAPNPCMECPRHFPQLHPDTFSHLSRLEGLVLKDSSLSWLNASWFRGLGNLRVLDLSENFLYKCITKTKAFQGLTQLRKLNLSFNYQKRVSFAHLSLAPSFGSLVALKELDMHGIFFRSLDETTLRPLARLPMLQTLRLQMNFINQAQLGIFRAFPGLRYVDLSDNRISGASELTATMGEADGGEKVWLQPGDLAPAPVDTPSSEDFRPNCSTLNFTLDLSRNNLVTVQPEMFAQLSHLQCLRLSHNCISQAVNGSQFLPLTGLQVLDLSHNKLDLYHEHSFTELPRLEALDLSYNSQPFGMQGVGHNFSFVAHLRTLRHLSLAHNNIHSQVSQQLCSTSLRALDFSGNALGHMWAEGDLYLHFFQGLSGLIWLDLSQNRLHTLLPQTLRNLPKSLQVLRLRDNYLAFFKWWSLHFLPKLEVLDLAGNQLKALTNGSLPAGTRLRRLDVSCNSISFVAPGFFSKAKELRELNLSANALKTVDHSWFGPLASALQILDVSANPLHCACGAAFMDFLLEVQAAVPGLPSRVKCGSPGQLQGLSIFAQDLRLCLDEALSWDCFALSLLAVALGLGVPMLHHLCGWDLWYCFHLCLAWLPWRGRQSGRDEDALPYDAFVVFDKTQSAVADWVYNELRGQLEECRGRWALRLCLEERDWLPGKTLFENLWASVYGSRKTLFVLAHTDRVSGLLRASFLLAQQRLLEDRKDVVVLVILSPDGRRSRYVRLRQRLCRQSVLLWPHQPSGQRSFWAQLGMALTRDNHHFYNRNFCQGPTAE
Briefly: hTLR9 antagonism IC50, hTLR9-NFkB-293 cells, luciferase readout, CpG-ODN 2006 (Examples 8 and 18, Tables 19 and 20). The data set is classed as cell-based. To be noted: hTLR9-NFkB-293 cells, EC50 dose of CpG-ODN 2006, 16 h; Table 19 quinazolines; read-out: hTLR9 (IC50 dose for blockade of a CpG ODN-generated signal). As to the method: (§1) hTLR9-NFkB-293 cells were counted and seeded at 1.5×10^4 cells per well in 96-well cell culture plates one day before assaying and cultured at 37° C./5% CO2, as described in Example 7. The day of the assay, antagonist was added at varying concentrations starting at 50 μM with a 1/5 to 1/6 dilution for 7 steps. The cells were then stimulated with the EC50 dose of the TLR9 agonist, CpG-ODN 2006, and cultured for 16 h in a humidified incubator at 37° C. The culture supernatant was removed and the cells were treated with lysis buffer and stored at −80° C. before measuring luciferase activity as described in Example 7. […] Results shown in Table 19 under the heading hTLR9 are the IC50 dose (μM) for blockade of a CpG ODN-generated signal in hTLR9-NFkB-293 cells.
as §1, with “20” for “19”

Data set [1] has as its system CpG ODN-generated IL-6 production by human PBMC. Briefly: Blockade of CpG ODN-generated IL-6 production by human PBMC, ELISA (Example 8, Table 19). To be noted: CpG-ODN 2006, 16 h. It is filed as cell-based. An excerpt: Alternatively, TLR9 ligand antagonism in human peripheral blood mononuclear cells (PBMC) was monitored. Peripheral blood buffy coat preparations from healthy male and female human donors were obtained from the Blood Bank of the University of Düsseldorf (Germany) and from these, PBMC were purified by centrifugation over Ficoll-Hypaque (Sigma). The purified PBMC were resuspended in RPMI 1640 culture medium supplemented with 5% (v/v) heat-inactivated human AB serum (Bio Whittaker, Belgium) or 10% (v/v) heat-inactivated fetal calf serum (FCS), 1.5 mM L-glutamine, 100 U/ml penicillin and 100 μg/ml streptomycin (all from Sigma). Fresh PBMC at a concentration of 3×10^6/ml to 5×10^6/ml were added to 96-well round-bottomed plates (150 μl/well). After cell plating, antagonist was added at varying concentrations starting at 50 μM with a 1/5 to 1/6 dilution for 7 steps. The cells were then stimulated with the TLR9 agonist, CpG-ODN 2006, and cultured for 16 h in a humidified incubator at 37° C. Culture supernatants were collected and, if not used immediately, frozen at −20° C. until required. Interleukin 6 (IL-6) in the supernatants was quantitatively assessed using commercially available ELISA Kits (IL6, Diaclone, USA). Sigmoidal antagonism curves were generated and IC50 calculated. Results shown in Table 19 under the heading IL-6 are the IC50 dose (μM) for blockade of CpG ODN-generated IL-6 production by human PBMC.

A short description of data set [2]: Macfarlane's assay of chloroquines (IC50). To be noted: from the Macfarlane IC50 values. From the text: It turns out that chloroquine, hydroxychloroquine, mono de-ethylchloroquine, and bis de-ethylchloroquine have been examined by Macfarlane.
For data set [3] the following is noted: read-out: IC50 by Macfarlane's assay; cited from earlier work.
Another data set deals with Plasmodium falciparum. To be noted: treatment of malaria; Aderounmu 1984; cited from earlier work.
For data set [4] the following is noted: cited from earlier work.
The next data set addresses T2, human TLR9 (hTLR9) (Homo sapiens, UniProt Q9NR96).
T2 construct: expressed in transfected cells
T2 sequence (Q9NR96 26-1032): T1 sequence (Q9NR96 26-1032)
It is filed as cell-based. To be noted: three-point assay at 50, 5.0 or 0.5 μM; EC50 dose of CpG-ODN 2006, 16 h. As to the method:
Stably co-transfecting the human TLR9 receptor (hTLR9) and an NF-κB promoter-driven luciferase gene into HEK-293 cells created the cell line hTLR9-NFkB-293. hTLR9-NFkB-293 cells were counted and seeded at 1.5×10^4 cells per well in 96-well cell culture plates one day before assaying and cultured at 37° C./5% CO2. The day of the assay, antagonist was added at 50 μM, 5.0 μM or 0.5 μM. The cells were then stimulated with the EC50 dose of the TLR9 agonist, CpG-ODN 2006, and cultured for 16 h in a humidified incubator at 37° C. The culture supernatant was removed and the cells were treated with lysis buffer and stored at −80° C. before measuring luciferase activity. The luciferase readout was measured according to manufacturer's instructions using a luciferase assay system available from Promega, USA. The antagonist dose listed in Table 18 is the minimum effective dose (μM) for blockade of the TLR9 agonist. As evident from the results presented in Table 18, the minimum effective dose (μM) for blockade of the TLR9 agonist was 0.5 μM or 5 μM for all of the compounds tested, as measured by this three-point assay.

In another data set the test system is WEHI 231 B-cells. To be noted: anti-surface IgM, U.S. Pat. No. 6,479,504, read-out: EC50, half-maximal inhibition of CpG-ODN effect on thymidine uptake; cited from earlier work.

One may read the IC50 as the concentration that inhibits the measured activity by half. A word on the EC50: it is the concentration giving half of the maximal effect.

`CN(C)CCNC1NC(c2ccc(N3CCN(C)CC3)cc2)=Nc2ccccc21` (centres unmarked) [CMZ 203-34(201), N,N-dimethyl-N′-{2-[4-(4-methyl-piperazin-1-yl)-phenyl]-3,4-dihydro-quinazoline-4-yl}-ethane-1,2,-diamine]: the IC50 stood at 3 nM at hTLR9 and 50 nM in data set [1].
The matching figures for `CN(C)CCNc1nc(-c2ccccc2)nc2ccccc12` [CMZ 203-44, N,N-Dimethyl-N′-(2-phenyl-quinazolin-4-yl)-ethane-1,2-diamine]: 2400 nM and 4000 nM.
The matching figures for `CN(C)CCOc1nc(-c2ccc(N3CCN(C)CC3)cc2)nc2ccccc12` [CMZ 203-49(213), Dimethyl-(2-{2-[4-(4-methyl-piperazin-1-yl)-phenyl]-quinazolin-4-yloxy}-ethyl)-amine]: 2400 nM and 600 nM.
`CN(C)CCNc1nc(-c2ccc(-c3ccccc3)cc2)nc2ccccc12` [CMZ 203-51, N′-(2-Biphenyl-4-yl-quinazolin-4-yl)-N,N-dimethyl-ethane-1,2-diamine]: the IC50 is 5200 nM on hTLR9 and 6600 nM in data set [1].
In the same order, the values of `COc1cc2nc(N3CCN(C)CC3)nc(NCCN(C)C)c2cc1OC` [CMZ 203-76, N′-[6,7-Dimethoxy-2-(4-methyl-piperazin-1-yl)-quinazolin-4-yl]-N,N-dimethyl-ethane-1,2-diamine] are 3 nM and 221 nM.
Consider `COc1cc2nc(N3CCN(c4ccccc4)CC3)nc(NCCN(C)C)c2cc1OC` [CMZ 203-78, N′-[6,7-Dimethoxy-2-(4-phenyl-piperazin-1-yl)-quinazolin-4-yl]-N,N-dimethyl-ethane-1,2-diamine], for which the concentration for half-maximal inhibition (IC50) stood at 3 nM on hTLR9 and 8 nM in data set [1].
With `CC(CCCN)Nc1ccnc2cc(Cl)ccc12` (centres unmarked) [bis de-ethylchloroquine], the “reduction of potency relative to chloroquine” value in data set [2] is reported as “about 18 fold”. Further, in data set [3], the IC50 was 1860 nM. For the same molecule, the “potency against Plasmodium falciparum” value with Plasmodium falciparum is given as “about half as active”.
Consider `CCN(CC)CCCC(C)Nc1ccnc2cc(Cl)ccc12` (centres unmarked) [chloroquine], for which, in data set [3], the IC50 was 110 nM. For the same molecule, in the data set on Plasmodium falciparum, the “potency against Plasmodium falciparum” value is recorded as “about equal”. Further, in data set [4] (human, in vivo), the “half life in humans” value was 18 days.
Take `Cc1cc(C)c2c(N)c3cc(F)ccc3nc2n1` [compound 1727, 7-Fluoro-2,4-dimethyl-benzo[b][1,8]naphthyridin-5-ylamine]: the “antagonist dose (minimum effective dose for blockade of the TLR9 agonist)” value at human TLR9 (hTLR9) turned out to be 0.5 µM.
With `CCN(CCO)CCCC(C)Nc1ccnc2cc(Cl)ccc12` (centres unmarked) [hydroxychloroquine], in data set [3], the IC50 is 410 nM.
For `CCNCCCC(C)Nc1ccnc2cc(Cl)ccc12` (centres unmarked) [mono de-ethylchloroquine], in data set [2], the “reduction of potency relative to chloroquine” value is reported as “about 7 fold”. Besides, the 50% inhibitory concentration (IC50) in data set [3] is 708 nM. The “potency against Plasmodium falciparum” value in the data set on Plasmodium falciparum was “about equal”. In addition, the “half life relative to that of chloroquine” value in data set [4] (humans) is given as 1.5 times. Also, in data set [4] (humans, de Vries 1994), the “half life in humans” value was 27 days.
As to `CCN(CC)CCCC(C)Nc1c2ccc(Cl)cc2nc2ccc(OC)cc12` (centres unmarked) [quinacrine], in the data set with WEHI 231 B-cells, the EC50 is around 8 nM.
